Assay results reported in patent US8431596B2 (Cancer Research Technology Limited, priority 2007, dated 2013).

Target: T1, AXL (human catalytic domain) (Homo sapiens, UniProt P30530)
T1 construct: purchased Upstate Ltd. 14-512
T1 sequence (P30530 473-894): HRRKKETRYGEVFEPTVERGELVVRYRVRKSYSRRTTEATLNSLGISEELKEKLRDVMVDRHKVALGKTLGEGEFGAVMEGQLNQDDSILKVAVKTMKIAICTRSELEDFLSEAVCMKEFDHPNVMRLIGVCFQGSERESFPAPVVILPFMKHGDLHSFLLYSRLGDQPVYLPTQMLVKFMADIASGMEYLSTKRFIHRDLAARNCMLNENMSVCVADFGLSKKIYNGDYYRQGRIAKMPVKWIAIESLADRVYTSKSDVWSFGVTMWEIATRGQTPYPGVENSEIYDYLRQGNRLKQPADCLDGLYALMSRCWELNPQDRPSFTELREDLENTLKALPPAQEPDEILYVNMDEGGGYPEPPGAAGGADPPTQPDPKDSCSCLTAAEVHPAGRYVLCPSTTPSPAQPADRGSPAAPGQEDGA
Assay: AXL (human catalytic domain) Enzyme Activity Assay (IMAP fluorescence polarisation)
Assay type: biochemical
Summary of the method: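 IMAP FP readout (Ex485/Em535, after overnight binding) measured inhibition of the human AXL catalytic domain (aa473-894, 15 nM final) acting on 100 nM 5FAM-CSK-tide at 150 μM ATP, equal to KM. Reactions ran 60 min at room temperature in pH 7.0 HEPES buffer; IC50 from 10-point curves.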

[1] = first data set, recombinant AXL isoform 1 aa473-894, 150 μM ATP
[2] = further data set (WW-001 through WW-169, XX-001 through XX-469, YY-001 through YY-016, ZZ-001 through ZZ-003), 150 μM ATP

IC50 [1]	IC50 [2]	SMILES
1 to 10 µM	1 to 10 µM	CCCn1cc(-c2cccc3nc(NC(=O)C4CC4)nn23)cn1 [WW-124, Cyclopropanecarboxylic acid [5-(1-propyl-1H-pyrazol-4-yl)-[1,2,4]triazolo[1,5-a]pyridin-2-yl]-amide]
–	≤ 0.1 µM	CCN(CC)CCOc1cc(Nc2nc3cccc(-c4ccc5[nH]ccc5c4)n3n2)ccn1 [XX-363]
–	1 to 10 µM	FC(F)(F)c1ccccc1COc1cccc(-c2cccc3nc(Nc4ccc(OCCN5CCCC5)cc4)nn23)c1 [XX-402]
–	0.1 to 1 µM	CCN(CC)CCOc1cccc(Nc2nc3cccc(-c4ccc(N(C)C)c(C)c4)n3n2)c1 [XX-147]
–	0.1 to 1 µM	COc1ccc(-c2cccc3nc(Nc4cccc(N(C)C(=O)C(C)N5CCOCC5)c4)nn23)cc1 (centres unmarked) [XX-391]
–	0.1 to 1 µM	c1ccc(CNc2ccc(-c3cccc4nc(Nc5ccc(OCCN6CCCC6)cc5)nn34)cc2)cc1 [XX-252]
–	0.1 to 1 µM	COc1cccc(COc2cccc(-c3cccc4nc(Nc5ccc(OCCN6CCCC6)cc5)nn34)c2)c1 [XX-335]
–	0.1 to 1 µM	c1cc(NCC2CC2)cc(-c2cccc3nc(Nc4ccc(OCCN5CCCC5)cc4)nn23)c1 [XX-444]
–	0.1 to 1 µM	FC(F)(F)c1ccc(-c2nccc3nc(Nc4ccc(OCCN5CCCC5)cc4)nn23)cc1 [YY-013]
0.364 µM	0.1 to 1 µM	O=C(Nc1nc2ccnc(-c3ccc4c(c3)OCCO4)n2n1)C1CC1 [ZZ-001, Cyclopropanecarboxylic acid [5-(2,3-dihydro-benzo[1,4]dioxin-6-yl)-[1,2,4]triazolo[1,5-c]pyrimidin-2-yl]-amide]
–	0.1 to 1 µM	c1coc(-c2cccc3nc(Nc4ccc(OCCN5CCCC5)cc4)nn23)c1 [XX-203]
–	0.1 to 1 µM	c1ccc2sc(-c3cccc4nc(Nc5ccc(OCCCN6CCCCC6)cc5)nn34)cc2c1 [XX-422]
–	0.1 to 1 µM	CCN(CC)CCOc1cc(Nc2nc3cccc(-c4cc5ccccc5o4)n3n2)ccn1 [XX-364]
–	0.1 to 1 µM	COc1ccc(-c2cccc3nc(Nc4ccc(C(=O)NCCN5CCCC5)s4)nn23)cc1 [XX-409]
< 1 µM	0.1 to 1 µM	CN(C)CCNC(=O)c1ccc(Nc2nc3cccc(-c4ccc5c(c4)OCO5)n3n2)cc1 [XX-087]
–	1 to 10 µM	COc1ccc(OC)c(-c2cccc3nc(Nc4ccc(OCCN5CCCC5)cc4)nn23)c1 [XX-333]
1 to 10 µM	1 to 10 µM	CCCCNc1cccc2nc(NC(=O)C3CC3)nn12 [WW-073]
–	0.1 to 1 µM	COc1cc(CNc2cccc(-c3cccc4nc(Nc5ccc(OCCN6CCCC6)cc5)nn34)c2)cc(OC)c1 [XX-450]
–	0.1 to 1 µM	O=C(Cn1cc(-c2cccc3nc(Nc4ccc(OCCN5CCCC5)cc4)nn23)cn1)Nc1ccccc1 [XX-432]
–	0.1 to 1 µM	CC(=O)Nc1ccc(-c2cccc3nc(Nc4ccc(OCCN5CCCC5)cc4)nn23)cc1 [XX-205]
–	≤ 0.1 µM	Cc1cccc(Cn2cc(-c3cccc4nc(Nc5ccc(OCCN6CCCC6)cc5)nn34)cn2)c1 [XX-290]
1 to 10 µM	1 to 10 µM	Cc1ccc(-c2cccc3nc(NC(=O)C4CC4)nn23)s1 [WW-055]
–	0.1 to 1 µM	Cn1cncc1CNc1cccc(-c2cccc3nc(Nc4ccc(OCCN5CCCC5)cc4)nn23)c1 [XX-259]

IC50 [1]	IC50 [2]	SMILES
–	0.1 to 1 µM	CCCCCCS(=O)(=O)n1cc(-c2cccc3nc(Nc4ccc(OCCN5CCCC5)cc4)nn23)cn1 [XX-379]
–	≤ 0.1 µM	O=S(=O)(CCC(F)(F)F)n1cc(-c2cccc3nc(Nc4ccc(OCCN5CCCC5)cc4)nn23)cn1 [XX-382]
–	0.1 to 1 µM	CCn1cc(-c2cccc(-c3cccc4nc(Nc5ccc(OCCN6CCCC6)cc5)nn34)c2)cn1 [XX-172]
1 to 10 µM	1 to 10 µM	O=C(Nc1nc2cccc(-c3cccc(C(F)(F)F)c3)n2n1)C1CC1 [WW-033]
–	0.1 to 1 µM	CCOc1ccc(-c2nccc3nc(Nc4ccc(OCCN5CCCC5)cc4)nn23)cc1 [YY-007]
–	0.1 to 1 µM	Oc1ccc(-c2cccc3nc(Nc4ccc(OCCN5CCCC5)cc4)nn23)cc1 [XX-151]
< 1 µM	≤ 0.1 µM	COc1ccc(-c2cccc3nc(Nc4ccc(OCCN5CCCCC5)cc4)nn23)cc1 [XX-019]
–	0.1 to 1 µM	Cc1cc(C)cc(-c2nccc3nc(Nc4ccc(OCCN5CCCC5)cc4)nn23)c1 [YY-015]
–	0.1 to 1 µM	c1csc(Cn2cc(-c3cccc4nc(Nc5ccc(OCCN6CCCC6)cc5)nn34)cn2)c1 [XX-275]
–	≤ 0.1 µM	CCN(CC)CCN(C)c1cc(Nc2nc3cccc(-c4ccc(OC)cc4)n3n2)ccn1 [XX-326]
–	≤ 0.1 µM	CCN(CC)CCNc1ccc(Nc2nc3cccc(-c4ccc5c(c4)OCCO5)n3n2)cc1 [XX-127]
–	≤ 0.1 µM	Clc1ccc(-c2cccc3nc(Nc4ccc(OCCN5CCCC5)cc4)nn23)cc1 [XX-211]
–	0.1 to 1 µM	CCN(CC)CC(=O)Nc1cccc(Nc2nc3cccc(-c4ccc5c(c4)OCCO5)n3n2)c1 [XX-120]
–	0.1 to 1 µM	COc1cc(-c2cccc3nc(Nc4ccc(OCCN5CCCC5)cc4)nn23)ccc1F [XX-334]
–	0.1 to 1 µM	NCCNS(=O)(=O)c1ccc(Nc2nc3cccc(-c4ccc5c(c4)OCCO5)n3n2)cc1 [XX-144]
1 to 10 µM	1 to 10 µM	O=C(Nc1nc2cccc(-c3ccc(OCC4CC4)cc3)n2n1)C1CC1 [WW-121]
–	0.1 to 1 µM	CN1CCN(C(=O)c2cccc(Nc3nc4cccc(-c5ccc6c(c5)OCCO6)n4n3)c2)CC1 [XX-114]
1 to 10 µM	1 to 10 µM	COCC(=O)Nc1nc2cccc(-c3ccc(OC)cc3)n2n1 [WW-041]
–	0.1 to 1 µM	COc1ccccc1CNc1cccc(-c2cccc3nc(Nc4ccc(OCCN5CCCC5)cc4)nn23)c1 [XX-451]
1 to 10 µM	1 to 10 µM	O=C(Nc1nc2cccc(-c3cc[nH]c3)n2n1)C1CC1 [WW-149]
–	0.1 to 1 µM	CS(=O)(=O)c1ccc(-c2cccc3nc(Nc4ccc(OCCN5CCCC5)cc4)nn23)cc1 [XX-215, [5-(4-Methanesulfonyl-phenyl)-[1,2,4]triazolo[1,5-a]pyridin-2-yl]-[4-(2-pyrrolidin-1-yl-ethoxy)-phenyl]-amine]
< 1 µM	≤ 0.1 µM	CN(C)CCNC(=O)c1cccc(Nc2nc3cccc(-c4ccc5occc5c4)n3n2)c1 [XX-085]
–	1 to 10 µM	Cc1ccc(COc2cccc(-c3cccc4nc(Nc5ccc(OCCN6CCCC6)cc5)nn34)c2)cc1 [XX-457]

IC50 [1]	IC50 [2]	SMILES
–	0.1 to 1 µM	COc1cc(Nc2nc3cccc(-c4ccc5c(c4)OCCO5)n3n2)ccc1OCCN(C)C [XX-112]
–	0.1 to 1 µM	c1ccc(CNc2cccc(-c3cccc4nc(Nc5ccc(OCCN6CCCC6)cc5)nn34)c2)cc1 [XX-398]
< 1 µM	≤ 0.1 µM	CN1CCN(CCOc2ccc(Nc3nc4cccc(-c5ccc6c(c5)OCCO6)n4n3)cc2)CC1 [XX-077]
–	0.1 to 1 µM	c1cc(-c2ccc3nonc3c2)n2nc(Nc3ccc(OCCN4CCCC4)cc3)nc2c1 [XX-208]
–	1 to 10 µM	NCc1cccc(-c2cccc3nc(Nc4ccc(OCCN5CCCC5)cc4)nn23)c1 [XX-308, [5-(3-Aminomethyl-phenyl)-[1,2,4]triazolo[1,5-a]pyridin-2-yl]-[4-(2-pyrrolidin-1-yl-ethoxy)-phenyl]-amine]
–	0.1 to 1 µM	Oc1ccc(-c2cccc3nc(Nc4ccc(OCCN5CCCC5)cc4)nn23)cc1F [XX-243]
–	1 to 10 µM	FC(F)(F)c1cccc(COc2cccc(-c3cccc4nc(Nc5ccc(OCCN6CCCC6)cc5)nn34)c2)c1 [XX-401]
–	0.1 to 1 µM	COc1c(C)cc(-c2cccc3nc(Nc4ccc(OCCN5CCCC5)cc4)nn23)cc1C [XX-207]
1 to 10 µM	1 to 10 µM	CCC(=O)Nc1nc2cccc(-c3ccc(OC)cc3)n2n1 [WW-040]
–	0.1 to 1 µM	Cc1ccc(CNc2ccc(-c3cccc4nc(Nc5ccc(OCCN6CCCC6)cc5)nn34)cc2)cc1 [XX-267]
1 to 10 µM	1 to 10 µM	COc1ccc(-c2cccc3nc(NC(=O)C4CCC4)nn23)cc1 [WW-042]
–	1 to 10 µM	O=C(Nc1ccc(C(F)(F)F)cc1)Nc1cccc(-c2cccc3nc(Nc4ccc(OCCN5CCCC5)cc4)nn23)c1 [XX-225]
–	≤ 0.1 µM	O=S(=O)(c1ccccc1Cl)n1cc(-c2cccc3nc(Nc4ccc(OCCN5CCCC5)cc4)nn23)cn1 [XX-378]
1 to 10 µM	1 to 10 µM	O=C(Nc1nc2cccc(NC3CCCC3)n2n1)C1CC1 [WW-078]
–	0.1 to 1 µM	O=C(Nc1cccc(-c2cccc3nc(Nc4ccc(OCCN5CCCC5)cc4)nn23)c1)c1cccnc1 [XX-180]
–	0.1 to 1 µM	Cn1nc(COc2cccc(-c3cccc4nc(Nc5ccc(OCCN6CCCC6)cc5)nn34)c2)c2ccccc21 [XX-407]
< 1 µM	–	c1cc(-c2ccc3c(c2)CCO3)n2nc(Nc3ccc(OCCN4CCCC4)cc3)nc2c1 [XX-044]
1 to 10 µM	1 to 10 µM	CN1CCN(c2ccc(-c3cccc4nc(NC(=O)C5CC5)nn34)cc2)CC1 [WW-003, Cyclopropanecarboxylic acid {5-[4-(4-methyl-piperazin-1-yl)-phenyl]-[1,2,4]triazolo [1,5-a]pyridin-2-yl}-amide]
–	0.1 to 1 µM	O=C(Cn1cc(-c2cccc3nc(Nc4ccc(OCCN5CCCC5)cc4)nn23)cn1)c1ccccc1 [XX-346]
–	1 to 10 µM	O=C(Cn1cc(-c2cccc3nc(Nc4ccc(OCCN5CCCC5)cc4)nn23)cn1)NC1CC1 [XX-437]
–	0.1 to 1 µM	CC(=O)Nc1ccc(S(=O)(=O)n2cc(-c3cccc4nc(Nc5ccc(OCCN6CCCC6)cc5)nn34)cn2)cc1 [XX-376]
